Measurements as given in patent US10172358B2, “Thiopicolinamide compounds with fungicidal activity” (Dow AgroSciences LLC, priority 2016, dated 2019).
Read-outs that look alike come from different tables or passages of the source.

Key:
[1] = test system: Puccinia triticina; experiment: Fungicidal activity: wheat brown rust (PUCCRT), disease control on wheat seedlings; assay type: in vivo, Puccinia triticina on wheat plants (variety Yuma); conditions: for pest or weed control at 100 ppm: high volume application; for pest or weed control at 121.5 g/ha: low volume application, 121.5 g/H
Experimental: Technical grades of materials were dissolved in acetone, which were then mixed with nine volumes of water (H2O) containing 110 ppm Triton X-100. The fungicide solutions were applied onto wheat seedlings using an automated booth sprayer to run-off. All sprayed plants were allowed to air dry prior to further handling. All fungicides were evaluated using the aforementioned method for their activity vs. all target diseases, unless stated otherwise. Wheat leaf blotch and brown rust activity were also evaluated using track spray applications, in which case the fungicides were formulated as EC formulations, containing 0.1% Trycol 5941 in the spray solutions. Evaluation of Fungicidal Activity: Wheat Brown Rust (Puccinia triticina; Synonym: Puccinia recondita f. Sp. Tritici; Bayer Code PUCCRT) Wheat plants (variety Yuma) were grown from seed in a greenhouse in 50% mineral soil/50% soil-less Metro mix until the first leaf was fully emerged, with 7-10 seedlings per pot. These plants were inoculated with an aqueous spore suspension of Puccinia triticina either prior to or after fungicide treatments. After inoculation the plants were kept in a dark dew room at 22° C. with 100% relative humidity overnight to permit spores to germinate and infect the leaf. The plants were then transferred to a greenhouse set at 24° C. for disease to develop. Fungicide formulation, application and disease assessment followed the procedures as described in the Example A. The results of the evalution are shown below in Table 4.

[2] = test system: Zymoseptoria tritici; experiment: Fungicidal activity: leaf blotch of wheat (SEPTTR), disease control on wheat seedlings; assay type: in vivo, Zymoseptoria tritici on wheat plants (variety Yuma); conditions: for pest or weed control at 100 ppm: high volume application; for pest or weed control at 121.5 g/ha: low volume application, 121.5 g/H
Experimental: Evaluation of Fungicidal Activity: Leaf Blotch of Wheat (Zymoseptoria Tritici; Bayer Code […]) Technical grades of materials were dissolved in acetone, which were then mixed with nine volumes of water (H2O) containing 110 ppm Triton X-100. The fungicide solutions were applied onto wheat seedlings using an automated booth sprayer to run-off. All sprayed plants were allowed to air dry prior to further handling. All fungicides were evaluated using the aforementioned method for their activity vs. all target diseases, unless stated otherwise. Wheat leaf blotch and brown rust activity were also evaluated using track spray applications, in which case the fungicides were formulated as EC formulations, containing 0.1% Trycol 5941 in the spray solutions. Wheat plants (variety Yuma) were grown from seed in a greenhouse in 50% mineral soil/50% soil-less Metro mix until the first leaf was fully emerged, with 7-10 seedlings per pot. These plants were inoculated with an aqueous spore suspension of Zymoseptoria tritici either prior to or after fungicide treatments. After inoculation the plants were kept in 100% relative humidity (one day in a dark dew chamber followed by two to three days in a lighted dew chamber at 20° C.) to permit spores to germinate and infect the leaf. The plants were then transferred to a greenhouse set at 20° C. for disease to develop. When disease symptoms were fully expressed on the 1st leaves of untreated plants, infection levels were assessed on a scale of 0 to 100 percent disease severity. Percent disease control was calculated using the ratio of disease severity on treated plants relative to untreated plants.

[3] = 24 h, 1 day protectant, read-out: PUCCRT 1DP disease control, HV activity at 100 ppm
[4] = 72 h, 3 day curative, read-out: PUCCRT 3DC disease control, HV activity at 100 ppm
[5] = 24 h, 1 day protectant, read-out: SEPTTR 1DP disease control, HV activity at 100 ppm
[6] = 72 h, 3 day curative, read-out: SEPTTR 3DC disease control, HV activity at 100 ppm
[7] = 24 h, 1 day protectant, read-out: PUCCRT 1DP disease control, LV activity at 121.5 g/H
[8] = 72 h, 3 day curative, read-out: PUCCRT 3DC disease control, LV activity at 121.5 g/H
[9] = 24 h, 1 day protectant, read-out: SEPTTR 1DP disease control, LV activity at 121.5 g/H
[10] = 72 h, 3 day curative, read-out: SEPTTR 3DC disease control, LV activity at 121.5 g/H

| Structure (SMILES) | pest or weed control at 100 ppm [1, 3] | pest or weed control at 100 ppm [1, 4] | pest or weed control at 100 ppm [2, 5] | pest or weed control at 100 ppm [2, 6] | pest or weed control at 121.5 g/ha [1, 7] | pest or weed control at 121.5 g/ha [1, 8] | pest or weed control at 121.5 g/ha [2, 9] | pest or weed control at 121.5 g/ha [2, 10] |
| --- | --- | --- | --- | --- | --- | --- | --- | --- |
| COc1ccnc(C(=S)N[C@@H](C)C(=O)O[C@H](C(C)C)[C@H](C)Oc2ccc(C)cc2)c1O [Compound 1] | > 80% | > 80% | ≤ 80% | ≤ 80% |  |  |  |  |
| COc1ccnc(C(=S)N[C@@H](C)C(=O)O[C@@H](C)C(c2ccc(Cl)cc2)c2ccc(Cl)cc2)c1O [Compound 2] | > 80% |  | > 80% | > 80% |  |  |  |  |
| COc1ccnc(C(=S)N[C@@H](C)C(=O)O[C@@H](C)C(c2ccc(C)cc2C)c2ccc(C)cc2C)c1O [Compound 3] | > 80% |  | > 80% | > 80% |  |  |  |  |
| COc1ccnc(C(=S)N[C@@H](C)C(=O)O[C@@H](C)[C@@H](c2ccccc2)c2ccc(F)cc2)c1O [Compound 4] | > 80% |  | > 80% | > 80% |  |  |  |  |
| COc1ccc(C(c2ccc(OC)cc2F)[C@H](C)OC(=O)[C@H](C)NC(=S)c2nccc(OC)c2O)c(F)c1 [Compound 5] | > 80% |  | > 80% | > 80% |  |  |  |  |
| COc1ccnc(C(=S)N[C@@H](C)C(=O)O[C@@H](C)[C@@H](c2ccc(C)cc2)c2ccc(F)cc2C)c1O [Compound 6] | > 80% | ≤ 80% | > 80% | > 80% |  |  |  |  |
| COc1ccnc(C(=S)N[C@@H](C)C(=O)O[C@H](C)C(c2ccc(F)cc2)c2ccc(F)cc2)c1O [Compound 7] | ≤ 80% |  | ≤ 80% |  |  |  |  |  |
| CCCCC[C@@H](OC(=O)[C@H](C)NC(=S)c1nccc(OC)c1O)[C@H](C)Oc1ccccc1 [Compound 8] | > 80% |  | ≤ 80% | ≤ 80% |  |  |  |  |
| COc1ccnc(C(=S)N[C@@H](C)C(=O)O[C@@H](C)[C@H](Oc2ccc(Cl)cc2Cl)c2ccccc2)c1O [Compound 9] | > 80% |  | > 80% | > 80% |  |  |  |  |
| CCCCC[C@H](OC(=O)[C@H](C)NC(=S)c1nccc(OC)c1O)[C@@H](C)Oc1ccccc1 [Compound 10] | ≤ 80% |  |  |  |  |  |  |  |
| COc1ccc(O[C@@H](C)[C@H](OC(=O)[C@H](C)NC(=S)c2nccc(OC)c2O)C(C)C)cc1 [Compound 11] | > 80% | > 80% | > 80% | ≤ 80% |  |  |  |  |
| COc1cc(F)ccc1[C@H](c1ccccc1)[C@H](C)OC(=O)[C@H](C)NC(=S)c1nccc(OC)c1O [Compound 12] | > 80% | ≤ 80% | > 80% | ≤ 80% |  |  |  |  |
| COc1ccccc1C(c1ccccc1OC)[C@H](C)OC(=O)[C@H](C)NC(=S)c1nccc(OC)c1O [Compound 13] | > 80% | ≤ 80% | > 80% | > 80% |  |  |  |  |
| COc1cc(Cl)ccc1C(c1ccc(Cl)cc1OC)[C@H](C)OC(=O)[C@H](C)NC(=S)c1nccc(OC)c1O [Compound 14] | > 80% | ≤ 80% | > 80% | > 80% |  |  |  |  |
| COc1ccnc(C(=S)N[C@H](C)C(=O)O[C@@H](C)C(c2ccc(F)cc2)c2ccc(F)cc2)c1O [Compound 15] |  |  | > 80% |  |  |  |  |  |
| C=CC[C@@H](Oc1ccccc1)[C@H](C)OC(=O)[C@H](C)NC(=S)c1nccc(OC)c1O [Compound 16] | > 80% | > 80% | > 80% | ≤ 80% |  |  |  |  |

| Structure (SMILES) | pest or weed control at 100 ppm [1, 3] | pest or weed control at 100 ppm [1, 4] | pest or weed control at 100 ppm [2, 5] | pest or weed control at 100 ppm [2, 6] | pest or weed control at 121.5 g/ha [1, 7] | pest or weed control at 121.5 g/ha [1, 8] | pest or weed control at 121.5 g/ha [2, 9] | pest or weed control at 121.5 g/ha [2, 10] |
| --- | --- | --- | --- | --- | --- | --- | --- | --- |
| COc1ccnc(C(=S)N[C@@H](C)C(=O)O[C@@H](C)[C@H](Oc2ccc(Cl)cc2)C(C)C)c1O [Compound 17] | > 80% |  | ≤ 80% |  |  |  |  |  |
| COc1cc(F)ccc1[C@H](c1ccc(C)cc1)[C@H](C)OC(=O)[C@H](C)NC(=S)c1nccc(OC)c1O [Compound 18] | > 80% | > 80% | > 80% | > 80% |  |  |  |  |
| COc1ccnc(C(=S)N[C@@H](C)C(=O)O[C@H](C(C)C)[C@H](C)Oc2ccccc2)c1O [Compound 19] | > 80% | > 80% | > 80% |  |  |  |  |  |
| COc1ccnc(C(=S)N[C@@H](C)C(=O)O[C@@H](C)C(c2ccc(C)cc2)c2ccc(C)cc2)c1O [Compound 20] | > 80% | ≤ 80% | > 80% | > 80% |  |  |  |  |
| COc1ccnc(C(=S)N[C@@H](C)C(=O)O[C@H](CC(C)C)[C@H](C)Oc2ccccc2)c1O [Compound 21] |  |  | ≤ 80% | ≤ 80% |  |  |  |  |
| COc1ccnc(C(=S)N[C@@H](C)C(=O)O[C@@H](C)[C@H](Oc2ccccc2Cl)c2ccccc2)c1O [Compound 22, (1R,2S)-1-(2-chlorophenoxy)-1-phenylpropan-2-yl (3-hydroxy-4-methoxypyridine-2-carbonothioyl)-L-alaninate] | > 80% | ≤ 80% | > 80% | ≤ 80% |  |  |  |  |
| CCC[C@H](OC(=O)[C@H](C)NC(=S)c1nccc(OC)c1O)[C@@H](C)Oc1ccccc1 [Compound 34] |  |  | ≤ 80% |  |  |  |  |  |
| COc1ccnc(C(=S)N[C@@H](C)C(=O)O[C@@H](C)C(c2ccc(F)cc2)c2ccc(F)cc2)c1O [Compound 39] | ≤ 80% | ≤ 80% | > 80% | > 80% |  |  |  |  |
| CCCCC[C@@H](OC(=O)[C@H](C)NC(=S)c1nccc(OC)c1CC(C)=O)[C@H](C)Oc1ccccc1 [Compound 41] |  |  |  |  | > 80% | > 80% | > 80% | > 80% |
| CCCCC[C@H](OC(=O)[C@H](C)NC(=S)c1nccc(OC)c1OC(C)=O)[C@@H](C)Oc1ccccc1 [Compound 42] |  |  |  |  | ≤ 80% | ≤ 80% | ≤ 80% |  |
| COc1ccnc(C(=S)N[C@@H](C)C(=O)O[C@@H](C)[C@H](Oc2ccc(Cl)cc2)C(C)C)c1OC(C)=O [Compound 43] |  |  |  |  | > 80% | > 80% | > 80% | ≤ 80% |
| COc1cc(F)ccc1[C@H](c1ccccc1)[C@H](C)OC(=O)[C@H](C)NC(=S)c1nccc(OC)c1OC(C)=O [Compound 44] |  |  |  |  | > 80% | ≤ 80% | > 80% | > 80% |
| COc1cc(F)ccc1[C@H](c1ccc(C)cc1)[C@H](C)OC(=O)[C@H](C)NC(=S)c1nccc(OC)c1OC(C)=O [Compound 45] |  |  |  |  | > 80% | > 80% | > 80% | > 80% |
| COc1ccnc(C(=S)N[C@@H](C)C(=O)O[C@@H](C)[C@@H](c2ccc(C)cc2)c2ccc(F)cc2C)c1OC(C)=O [Compound 46] |  |  |  |  | > 80% | > 80% | > 80% | > 80% |
| COc1ccnc(C(=S)N[C@@H](C)C(=O)O[C@H](C)C(c2ccc(F)cc2)c2ccc(F)cc2)c1OC(C)=O [Compound 55] |  |  |  |  |  |  | ≤ 80% |  |
